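Following 48 hours of exposure in 96-well plates, responses at five concentrations were used to interpolate endpoints linearly. Abbreviation: GI50, concentration required for 50% inhibition of growth. Definition used: TGI = concentration required for complete inhibition of growth.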

One assay has as its system NCI-H226 lung. The assay is described as follows: NCI anticancer screen, dose series, 48 h.
Compound `O=c1c2sc(=S)n(-c3ccc(F)cc3)c2ncn1/N=C/c1ccc(F)cc1F` returned a TGI of 87 µM.
For `CS(=O)c1ncc2c(n1)-c1ccccc1OC2` (configuration not stated), the TGI was greater than 100 µM.
In turn, `COc1cccc2c1OC1(C=C2)Oc2ccccc2C(=O)N1C` (configuration not stated) came in with a TGI of 95.9 µM.
The same measure, in the same setting: as for `O=c1[nH]c(=O)n(C2OC(CO)C(O)C2O)c2nc(-c3ccc(-c4ccccc4)cc3)cnc12` (configuration not stated), the figure is greater than 100 µM; as for `CN1CSC(=S)N(c2c3ccccc3nc3ccc(Br)cc23)C1`, 37 µM; as for `O=C(O)c1ccccc1CC1Cc2ccccc2C1=O` (configuration not stated), greater than 100 µM.
Consider `CCCCCCOc1ccc(C(=O)NOC)cc1`, for which the TGI is greater than 100 µM.
Take `NS(=O)(=O)c1cc(Cl)c(NC(=S)NC(=O)Nc2ccc(Cl)c(Cl)c2)c(Cl)c1`: the TGI is greater than 100 µM.
For the compound `CO[C@H]1/C=C(/C)CCC[C@H](C)[C@H](O)[C@@H](C)C(=O)C(C)(C)[C@@H](O)CC(=O)O[C@@H]1/C(C)=C/c1csc(C)n1`, the GI50 is 0.0324 µM and the TGI is greater than 100 µM.
For `COc1ccc2c(c1)OCC1Cc3ccccc3OC21` (configuration not stated), the TGI is greater than 100 µM.
`COC(=O)C1CCC(=O)N1C(c1ccc(OC)cc1)c1ccc2c(c1)OCO2` (configuration not stated) had a TGI greater than 100 µM.
Same read-out and setting: as for `CS(=O)(=O)OCC(CCl)(CCl)CCl`, the figure is greater than 100 µM.

For another assay, the system named is NCI-H522 lung. The experiment in a line: NCI anticancer screen, dose series, 48 h.
`O=c1c2sc(=S)n(-c3ccc(F)cc3)c2ncn1/N=C/c1ccc(F)cc1F`: the TGI is greater than 100 µM.
The same measure, in the same setting: as for `CS(=O)c1ncc2c(n1)-c1ccccc1OC2` (configuration not stated), the figure is greater than 100 µM; as for `COc1cccc2c1OC1(C=C2)Oc2ccccc2C(=O)N1C` (configuration not stated), greater than 100 µM; as for `O=c1[nH]c(=O)n(C2OC(CO)C(O)C2O)c2nc(-c3ccc(-c4ccccc4)cc3)cnc12` (configuration not stated), greater than 100 µM.
Compound `CN1CSC(=S)N(c2c3ccccc3nc3ccc(Br)cc23)C1` displayed a TGI of 12.6 µM.
With `O=C(O)c1ccccc1CC1Cc2ccccc2C1=O` (configuration not stated), the TGI is greater than 100 µM.
Compound `CCCCCCOc1ccc(C(=O)NOC)cc1` yielded a TGI greater than 100 µM.
Consider `NS(=O)(=O)c1cc(Cl)c(NC(=S)NC(=O)Nc2ccc(Cl)c(Cl)c2)c(Cl)c1`, for which the TGI stood at 86.4 µM.
Turning to `CO[C@H]1/C=C(/C)CCC[C@H](C)[C@H](O)[C@@H](C)C(=O)C(C)(C)[C@@H](O)CC(=O)O[C@@H]1/C(C)=C/c1csc(C)n1`, the GI50 was less than 0.01 µM and the TGI was determined as 0.0224 µM.
Take `COc1ccc2c(c1)OCC1Cc3ccccc3OC21` (configuration not stated): the TGI is greater than 100 µM.
Same read-out and setting: the value for `COC(=O)C1CCC(=O)N1C(c1ccc(OC)cc1)c1ccc2c(c1)OCO2` (configuration not stated) was greater than 100 µM.
Take `CS(=O)(=O)OCC(CCl)(CCl)CCl`: the TGI was greater than 100 µM.

The next assay deals with SK-OV-3 ovarian. The assay is described as follows: NCI anticancer screen, dose series, 48 h.
`O=c1c2sc(=S)n(-c3ccc(F)cc3)c2ncn1/N=C/c1ccc(F)cc1F`: the TGI is 53.7 µM.
In the case of `CS(=O)c1ncc2c(n1)-c1ccccc1OC2` (configuration not stated), the TGI was greater than 100 µM.
For `COc1cccc2c1OC1(C=C2)Oc2ccccc2C(=O)N1C` (configuration not stated), the TGI stood at 74.3 µM.
Regarding `O=c1[nH]c(=O)n(C2OC(CO)C(O)C2O)c2nc(-c3ccc(-c4ccccc4)cc3)cnc12` (configuration not stated), the TGI was greater than 100 µM.
Still for that read-out and setting: the value for `CN1CSC(=S)N(c2c3ccccc3nc3ccc(Br)cc23)C1` was 31.1 µM; that for `O=C(O)c1ccccc1CC1Cc2ccccc2C1=O` (configuration not stated) was greater than 100 µM; that for `CCCCCCOc1ccc(C(=O)NOC)cc1` was greater than 100 µM.
Still for that read-out and setting: as for `NS(=O)(=O)c1cc(Cl)c(NC(=S)NC(=O)Nc2ccc(Cl)c(Cl)c2)c(Cl)c1`, the figure is greater than 100 µM.
In the case of `CO[C@H]1/C=C(/C)CCC[C@H](C)[C@H](O)[C@@H](C)C(=O)C(C)(C)[C@@H](O)CC(=O)O[C@@H]1/C(C)=C/c1csc(C)n1`, the GI50 was 0.0272 µM and the TGI is greater than 77.2 µM.
Compound `COc1ccc2c(c1)OCC1Cc3ccccc3OC21` (configuration not stated) gave a TGI greater than 100 µM.
For the compound `COC(=O)C1CCC(=O)N1C(c1ccc(OC)cc1)c1ccc2c(c1)OCO2` (configuration not stated), the TGI is greater than 100 µM.
As for `CS(=O)(=O)OCC(CCl)(CCl)CCl`, the TGI is greater than 100 µM.

In another assay the test system is SNB-75 CNS. The assay is described as follows: NCI anticancer screen, dose series, 48 h.
Turning to `O=c1c2sc(=S)n(-c3ccc(F)cc3)c2ncn1/N=C/c1ccc(F)cc1F`, the TGI worked out at 32.8 µM.
Take `CS(=O)c1ncc2c(n1)-c1ccccc1OC2` (configuration not stated): the TGI was greater than 100 µM.
On the same count and under the same terms, as for `COc1cccc2c1OC1(C=C2)Oc2ccccc2C(=O)N1C` (configuration not stated), the figure is 74.1 µM.
As for `O=c1[nH]c(=O)n(C2OC(CO)C(O)C2O)c2nc(-c3ccc(-c4ccccc4)cc3)cnc12` (configuration not stated), the TGI was greater than 100 µM.
`CN1CSC(=S)N(c2c3ccccc3nc3ccc(Br)cc23)C1`: the TGI is 23.7 µM.
Compound `O=C(O)c1ccccc1CC1Cc2ccccc2C1=O` (configuration not stated) displayed a TGI greater than 100 µM.
In the case of `CCCCCCOc1ccc(C(=O)NOC)cc1`, the TGI was greater than 100 µM.
Same read-out and setting: the value for `NS(=O)(=O)c1cc(Cl)c(NC(=S)NC(=O)Nc2ccc(Cl)c(Cl)c2)c(Cl)c1` was greater than 100 µM.
With `CO[C@H]1/C=C(/C)CCC[C@H](C)[C@H](O)[C@@H](C)C(=O)C(C)(C)[C@@H](O)CC(=O)O[C@@H]1/C(C)=C/c1csc(C)n1`, the GI50 was less than 0.01 µM and the TGI amounted to 0.0319 µM.
Take `COc1ccc2c(c1)OCC1Cc3ccccc3OC21` (configuration not stated): the TGI is greater than 100 µM.
`COC(=O)C1CCC(=O)N1C(c1ccc(OC)cc1)c1ccc2c(c1)OCO2` (configuration not stated) registered a TGI of 78.9 µM.
Take `CS(=O)(=O)OCC(CCl)(CCl)CCl`: the TGI is greater than 100 µM.

The values are drawn from PubChem BioAssay (NCI).
